Here are results for four compounds from patent US10472661B2, “Method for increasing glycosylation of a composition comprising steviol glycosides” (DSM IP ASSETS B.V., priority 2014, dated 2019).

For one data set, the target named is T1, UGT3-SEQ ID NO: 74 (Stevia rebaudiana, UniProt Q6VAA6).
T1 construct: made in house; host or cells: Saccharomyces cerevisiae; unpurified soluble cell extract (CFE) from bead-lysed biomass
T1 sequence (Q6VAA6 1-460): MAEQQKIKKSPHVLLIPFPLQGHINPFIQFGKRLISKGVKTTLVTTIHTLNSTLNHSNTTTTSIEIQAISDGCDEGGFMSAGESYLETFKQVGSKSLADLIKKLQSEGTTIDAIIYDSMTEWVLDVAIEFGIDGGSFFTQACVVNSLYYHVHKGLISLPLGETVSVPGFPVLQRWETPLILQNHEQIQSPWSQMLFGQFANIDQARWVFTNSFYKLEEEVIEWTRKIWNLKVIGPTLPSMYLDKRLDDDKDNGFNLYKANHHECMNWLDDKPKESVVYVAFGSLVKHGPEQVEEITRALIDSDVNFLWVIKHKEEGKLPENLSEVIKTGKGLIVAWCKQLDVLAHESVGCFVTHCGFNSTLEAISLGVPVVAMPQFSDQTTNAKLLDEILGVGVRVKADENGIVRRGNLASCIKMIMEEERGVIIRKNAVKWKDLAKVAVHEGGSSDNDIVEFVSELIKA
In kind it is biochemical. To be noted: CFE 0.05 mg/mL, UDP-glucose 1 mM.

In data set [1] the test system is CFE obtained from the Yarrowia lipolitica steviol glycoside producing strains. Briefly: bioconversion of rebaudiosideA with CFE of Yarrowia lipolitica steviol glycoside producing strains, UDP-glucose, LC-MS. Type of data set: biochemical. To be noted: rebaudiosideA 100-500 μM; CFE 0.1 mg/mL; UDP-glucose 1 mM; products rebaudioside D and rebaudioside M. The text has this: Methods to obtain yeast strains expressing constructs encoding the steviol glycoside production pathway are described in WO2013/110673 and WO2015/007748. Here, different Yarrowia lipolitica strains were used: the parent strain (as negative control) and strains expressing the whole steviol glycoside production pathway. Cells were grow o/n in YEPD medium. After determining the optical density at 600 nm (respectively 1.00×10^10 cells/mL for the parent strain cultivation and 6.00-8.57×10^9 cells/mL for different Yarrowia lipolitica steviol glycoside producing strains), cells were lysed with 0.5 mm zirconia beads (see example 2 for details). The protein concentration of the thus obtained CFE were determined using Bradford reagent. The actual obtained protein concentrations ranged from 0,453 mg/mL to 0,771 mg/mL.
A dilution series of rebaudiosideA stock solutions was prepared at 0, 500, 1000, 1500, 2000 and 2500 μM in Van Eunen buffer. The CFE's were diluted in Van Eunen buffer to a concentration of 0.125 mg/m L. A 5 mM stock solution of UDP-glucose was prepared.
The reactions were set-up as described in example 2, only now the concentration of the CFE in the final reaction was doubled. Multiple samples were taken to follow the reactions.
In the reactions the final concentrations were: CFE, 0.1 mg/mL; UDP-glucose, 1 mM; rebaudiosideA, at 0, 100, 200, 300, 400, 500 μM. […]

The conditions of data set [2]: suitable for use in carbonated beverages and many other foods; cited from earlier work.
For data set [3] the following is noted: sweetness relative to sucrose; cited from earlier work.
For data set [4] the following is noted: Type II diabetics; studies suggest; cited from earlier work.
The conditions of data set [5]: mildly hypertensive patients; studies suggest; cited from earlier work.

Take `C=C1C[C@@]23CC[C@H]4[C@@](C)(CCC[C@@]4(C)C(=O)O[C@@H]4O[C@H](CO)[C@@H](O)[C@H](O)[C@H]4O)[C@@H]2CC[C@]1(O[C@@H]1O[C@H](CO)[C@@H](O)[C@H](O[C@@H]2O[C@H](CO)[C@@H](O)[C@H](O)[C@H]2O)[C@H]1O[C@@H]1O[C@H](CO)[C@@H](O)[C@H](O)[C@H]1O)C3` [rebaudioside A]: the “Vmax of rebaudiosideA formation” value on UGT3-SEQ ID NO: 74 (substrate rebaudioside B 0-200 μM, 30° C., calculated with GraphPad 5) is 0.0549±0.004 μmol/mg protein/min. The “glycosylated products detected by LC-MS” value in data set [1] is “two glycosylated products of rebaudioside A were detected”. The “heat and pH stability” value in data set [2] was “heat and pH stable”.
In the case of `C=C1C[C@@]23CC[C@H]4[C@@](C)(CCC[C@@]4(C)C(=O)O[C@@H]4O[C@H](CO)[C@@H](O)[C@H](O)[C@H]4O[C@@H]4O[C@H](CO)[C@@H](O)[C@H](O)[C@H]4O)[C@@H]2CC[C@]1(O[C@@H]1O[C@H](CO)[C@@H](O)[C@H](O[C@@H]2O[C@H](CO)[C@@H](O)[C@H](O)[C@H]2O)[C@H]1O[C@@H]1O[C@H](CO)[C@@H](O)[C@H](O)[C@H]1O)C3` [rebaudioside D], the “times sweeter than sucrose” value in data set [3] is recorded as “about 200 times”.
On to `C=C1C[C@@]23CC[C@H]4[C@@](C)(CCC[C@@]4(C)C(=O)O[C@@H]4O[C@H](CO)[C@@H](O)[C@H](O)[C@H]4O)[C@@H]2CC[C@]1(O[C@@H]1O[C@H](CO)[C@@H](O)[C@H](O)[C@H]1O[C@@H]1O[C@H](CO)[C@@H](O)[C@H](O)[C@H]1O)C3` [stevioside], for which the “heat and pH stability” value in data set [2] is “heat and pH stable”. Besides, the “effect on blood glucose levels” value in data set [4] was “can reduce blood glucose levels”. Besides, the “effect on blood pressure” value in data set [5] is “can reduce blood pressure”.
Take rebaudioside B: the “glycosylation of rebaudiosideB into rebaudiosideA by spent biomass derived material” value on UGT3-SEQ ID NO: 74 (rebaudioside B 50-200 μM, samples 0-30 min, FIG. 2) was “very efficiently glycosylated”.
